Here are results for 2 molecules from US20100256207A1, “AMORPHOUS OLMESARTAN MEDOXOMIL” (priority 2007, published 2010).

Structures are written as SMILES. Entries after “also recorded” stand apart in the source; their conditions may differ. Bounds are passed on as bounds.

For data set [1] the following is noted: cited from earlier work.
Data set [2] is classed as physicochemical. How it is done:
The powder obtained by the process according to the invention as described above and in the following examples was also subjected to Differential Scanning Calorimetry (DSC). It will be apparent to one skilled in the art that the exothermic event at 100-140° C. is a heating-induced recrystallisation of the amorphous form to the crystalline prior art form. This is confirmed by XRPD data and confirms that the chemical entity of the initial amorphous material does represent olmesartan medoxomil. Further, it also confirms that the amorphous olmesartan medoxomil according to the above described embodiments of the invention is sufficiently kinetically stable or metastable, as no conversion to other polymorphic forms occurs below 100° C.
The DSC thermal analysis data was obtained using a Mettler-Toledo DSC821e apparatus under the following parameters:
(§1) Temperature profile: 25-300° C.@5° C./min
(§2) Nitrogen purge gas, 50 ml/min
(§3) Aluminium pan, […], pierced prior to scan

A short description of data set [3]: Thermo-Gravimetric Analysis (TGA): water content / hygroscopicity. Type of data set: physicochemical. The protocol: The powder obtained by the process according to the invention as described above and in the following examples was also subjected to Thermo-Gravimetric Analysis (TGA).
The water content was determined by weight loss in the TGA data at 25-105° C.
The TGA analysis data was obtained using a Mettler-Toledo TGA851e apparatus under the following parameters:
as §1, §2, §3

`CCCc1nc(C(C)(C)O)c(C(=O)OCc2oc(=O)oc2C)n1Cc1ccc(-c2ccccc2-c2nnn[nH]2)cc1` [Olmesartan medoxomil, 2,3-dihydroxy-2-butenyl 4-(1-hydroxy-1-methylethyl)-2-propyl-1-[p-(o-tetrazol-5-yl-phenyl)benzyl]imidazole-5-carboxylate cyclic 2,3-carbonate]: the aqueous solubility result in data set [1] was “very low”.
On to `CCCc1nc(C(C)(C)O)c(C(=O)OCc2oc(=O)oc2C)n1Cc1ccc(-c2ccccc2-c2nnn[nH]2)cc1` [amorphous olmesartan medoxomil, 2,3-dihydroxy-2-butenyl 4-(1-hydroxy-1-methylethyl)-2-propyl-1-[p-(o-tetrazol-5-yl-phenyl)benzyl]imidazole-5-carboxylate cyclic 2,3-carbonate], for which the “kinetic stability: temperature below which no conversion to other polymorphic forms occurs” value in data set [2] is at least 100 °C. Besides, the “exothermic event: heating-induced recrystallisation of the amorphous form to the crystalline prior art form” value in data set [2] (DSC, 25-300° C. at 5° C./min, nitrogen purge, confirmed by XRPD) is 100-140 °C. In addition, in data set [3], the hygroscopicity entry was “surprisingly low hygroscopicity; also recorded: substantially non-hygroscopic”. The water content entry in data set [3] (weight loss in the TGA data at 25-105° C.) is recorded as “less than 2 % by weight”.
